Source: patent US7501541B2, “Malonamides as orexin antagonists” (Hoffmann-La Roche Inc., priority 2007, dated 2009)
No end group written: not given here.

Key:
[1] = target: T1, human orexin-2 (hOX2) receptors (Homo sapiens, UniProt O43614); assay: Intracellular Ca2+ mobilization assay (FLIPR), CHO(dHFr-) cells expressing hOX2; format: cell-based; conditions: antagonism of orexin-A at EC80; Kb=IC50/(1+[A]/EC50); CHO(dHFr-)-OX2R cells
T1 construct: expressed in transfected cells
T1 sequence (O43614 1-444): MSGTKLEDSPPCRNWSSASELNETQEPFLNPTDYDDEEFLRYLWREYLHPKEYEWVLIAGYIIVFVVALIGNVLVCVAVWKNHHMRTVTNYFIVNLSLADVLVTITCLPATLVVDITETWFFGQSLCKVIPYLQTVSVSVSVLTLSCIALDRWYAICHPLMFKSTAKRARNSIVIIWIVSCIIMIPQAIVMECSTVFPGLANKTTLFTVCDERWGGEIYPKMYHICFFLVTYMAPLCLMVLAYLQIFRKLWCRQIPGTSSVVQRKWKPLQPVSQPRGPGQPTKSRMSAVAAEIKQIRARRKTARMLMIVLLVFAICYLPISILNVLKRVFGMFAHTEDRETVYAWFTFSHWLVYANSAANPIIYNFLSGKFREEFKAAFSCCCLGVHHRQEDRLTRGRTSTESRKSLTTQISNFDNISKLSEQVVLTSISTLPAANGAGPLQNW
Protocol: (§1) Intracellular Ca^2+ Mobilization Assay
(§2) The Chinese Hamster Ovary (dHFr-) mutant cell line stably expressing human orexin-1 (hOX1) or human orexin-2 (hOX2) receptors were maintained in Dulbecco's Modified Eagle Medium (1X) with GlutaMax™ 1, 4500 mg/L D-Glucose and Sodium Pyruvate (Catalog No. 31966-021, Invitrogen, Carlsbad, Calif.), 5% dialyzed fetal calf serum (Catalog No. 26400-044), 100 μg/ml penicillin and 100 μg/ml streptomycin. The cells were seeded at 5×10^4 cells/well in the poly-D-lysine treated, 96-well, black/clear-bottomed plates (Catalog No. BD356640, BD Biosciences, Palo Alto, Calif.). 24 h later, the cells were loaded for 1 h at 37° C. with 4 μM Flou-4 acetoxymethyl ester (Catalog No. F-14202, Molecular Probes, Eugene, Oreg.) in FLIPR buffer (1×HBSS, 20 mM HEPES, 2.5 mM Probenecid). Hanks' Balanced Salt Solution (HBSS) (10×) (catalog No. 14065-049) and HEPES (1M) (catalog No. 15630-056) were purchased from Invitrogen, Carlsbad, Calif. Probenecid (250 mM) (catalog No. P8761) was from Sigma, Buchs, Switzerland. The cells were washed five times with FLIPR buffer to remove excess dye and intracellular calcium mobilization, [Ca^2+]i were measured using a Fluorometric Imaging Plate Reader (FLIPR-96, Molecular Devices, Menlo Park, Calif.) as described previously (Malherbe et al., Mol. Pharmacol., 64, 823-832, 2003). Orexin A (catalog No. 1455, Toris Cookson Ltd, Bristol, UK) was used as agonist. Orexin A ([…] stock solution in DMSO) was diluted in FLIPR buffer +0.1% BSA. The EC50 and EC80 values of orexin-A were measured daily from standard agonist concentration-response curves in CHO(dHFr-)-OX1R and -OX2R cell lines. All compounds were dissolved in 100% DMSO. Inhibition curves were determined by addition of 11 concentrations (0.0001-10 μM) of inhibitory compounds and using EC80 value of orexin-A as agonist (a concentration which gave 80% of max agonist response, determined daily). The antagonists were applied 25 min (incubation at 37° C.) before the application of the agonist. Responses were measured as peak increase in fluorescence minus basal, normalized to the maximal stimulatory effect induced by EC80 value of orexin-A or orexin-B. Inhibition curves were fitted according to the Hill equation: y=100/(1+(x/IC50)^nH), where nH=slope factor using Excel-fit 4 software (Microsoft). Kb values were calculated according to the following equation Kb=IC50/(1+[A]/EC50) where A is the concentration of agonist added which is very close to agonist EC80 value, and IC50 and EC50 values were derived from the antagonist inhibition and orexin-A or B agonist curves, respectively.

[2] = target: T2, human orexin-1 (hOX1) receptors (Homo sapiens, UniProt O43613); assay: Intracellular Ca2+ mobilization assay (FLIPR), CHO(dHFr-) cells expressing hOX1; format: cell-based; conditions: antagonism of orexin-A at EC80; Kb=IC50/(1+[A]/EC50); CHO(dHFr-)-OX1R cells
T2 construct: expressed in transfected cells
T2 sequence (O43613 1-425): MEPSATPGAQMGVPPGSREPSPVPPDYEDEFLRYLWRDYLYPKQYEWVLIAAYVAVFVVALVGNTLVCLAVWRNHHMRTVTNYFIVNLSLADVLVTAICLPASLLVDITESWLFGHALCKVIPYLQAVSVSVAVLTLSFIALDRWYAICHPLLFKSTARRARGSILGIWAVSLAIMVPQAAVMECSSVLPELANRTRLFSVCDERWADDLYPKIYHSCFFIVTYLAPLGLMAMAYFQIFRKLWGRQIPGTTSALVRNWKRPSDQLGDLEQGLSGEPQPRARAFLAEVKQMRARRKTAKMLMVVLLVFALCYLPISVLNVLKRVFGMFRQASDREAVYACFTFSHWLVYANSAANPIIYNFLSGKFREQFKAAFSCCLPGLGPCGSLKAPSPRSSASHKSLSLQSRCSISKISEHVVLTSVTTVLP
Protocol: as §1, §2

REM sleep = conditions: rat, icv administration (Piper et al., 2000); cited from earlier work

Row | Molecule | Kb [1] | Kb [2] | reduces total REM sleep (REM sleep)
1 | CNC(=O)C(C(=O)N(CCc1ccc(C(F)(F)F)cc1)c1ccc(OC)c(OC)c1)c1ccccc1 (stereo not drawn) [Example 1, N-(3,4-Dimethoxy-phenyl)-N′-methyl-2-phenyl-N-[2-(4-trifluoromethyl-phenyl)-ethyl]-malonamide] | 0.0255 µM | 0.16 µM | –
2 | COc1ccc(N(CCc2ccc(C(F)(F)F)cc2)C(=O)C(C(N)=O)c2ccccc2)cc1OC (stereo not drawn) [Example 2, N-(3,4-Dimethoxy-phenyl)-2-phenyl-N-[2-(4-trifluoromethyl-phenyl)-ethyl]-malonamide] | 0.0172 µM | 0.127 µM | –
3 | CCCCNC(=O)C(C(=O)N(CCc1ccc(C(F)(F)F)cc1)c1ccc(OC)c(OC)c1)c1ccccc1 (stereo not drawn) [Example 3, N-Butyl-N′-(3,4-dimethoxy-phenyl)-2-phenyl-N′-[2-(4-trifluoromethyl-phenyl)-ethyl]-malonamide] | 0.0419 µM | – | –
4 | COCCNC(=O)C(C(=O)N(CCc1ccc(C(F)(F)F)cc1)c1ccc(OC)c(OC)c1)c1ccccc1 (stereo not drawn) [Example 5, N-(3,4-Dimethoxy-phenyl)-N′-[2-methoxy-ethyl)-2-phenyl-N-[2-(4-trifluoromethyl-phenyl)-ethyl]-malonamide] | 0.0217 µM | 0.229 µM | –
5 | COc1ccc(N(CCc2ccc(C(F)(F)F)cc2)C(=O)C(C(=O)NCc2ccc(C)cc2)c2ccccc2)cc1OC (stereo not drawn) [Example 13, N-(3,4-Dimethoxy-phenyl)-N′-(4-methyl-benzyl)-2-phenyl-N-[2-(4-trifluoromethyl-phenyl)-ethyl]-malonamide] | 0.0968 µM | 0.218 µM | –
6 | COc1ccc(N(CCc2ccc(C(F)(F)F)cc2)C(=O)C(C(=O)N(C)CCc2ccccc2)c2ccccc2)cc1OC (stereo not drawn) [Example 14, N-(3,4-Dimethoxy-phenyl)-N′-methyl-N′-phenethyl-2-phenyl-N-[2-(4-trifluoromethyl-phenyl)-ethyl]-malonamide] | 0.0141 µM | 0.234 µM | –
7 | COc1ccc(N(CCc2ccc(C(F)(F)F)cc2)C(=O)C(C(=O)N(C)Cc2ccccc2)c2ccccc2)cc1OC (stereo not drawn) [Example 15, N-Benzyl-N′-(3,4dimethoxy-phenyl)-N-methyl-2-phenyl-N′-[2-(4-trifluoromethyl-phenyl)-ethyl]-malonamide] | 0.0428 µM | 0.166 µM | –
8 | COc1ccc(N(CCc2ccc(C(F)(F)F)cc2)C(=O)C(C(=O)Nc2ccc(F)cc2)c2ccccc2)cc1OC (stereo not drawn) [Example 16, N-(3,4-Dimethoxy-phenyl)-N′-(4-fluoro-phenyl)-2-phenyl-N-[2-(4-trifluoromethyl-phenyl)-ethyl]-malonamide] | 0.0817 µM | 0.252 µM | –
9 | CCNC(=O)C(C(=O)N(CCc1ccc(C(F)(F)F)cc1)c1ccc(OC)c(OC)c1)c1ccccc1 (stereo not drawn) [Example 17, N-(3,4-Dimethoxy-phenyl)-N′-ethyl-2-phenyl-N-[2-(4-trifluoromethyl-phenyl)-ethyl]-malonamide] | 0.0299 µM | 0.191 µM | –
10 | OX-A: orexin-A/hypocretin1, hypothalamic neuropeptide of 33 amino acids, agonist of OX1R and OX2R (QPLPDCCRQKTCSCRLYELLHGAGNHAAGILTL; ends and bridges not checked; cysteine pairing not given here; UniProt O43612 34-66, looked up) | – | – | 84%

The next lines start with results.

Row | Kb [1] | Kb [2] | Molecule | reduces total REM sleep (REM sleep)
11 | 0.0197 µM | 0.199 µM | COc1ccc(N(CCc2ccc(C(F)(F)F)cc2)C(=O)C(C(=O)NC2CC2)c2ccccc2)cc1OC (stereo not drawn) [Example 18, N-Cyclopropyl-N′-(3,4-dimethoxy-phenyl)-2-phenyl-N′-[2-(4-trifluoromethyl-phenyl)-ethyl]-malonamide] | –
12 | 0.0523 µM | 0.245 µM | CCCNC(=O)C(C(=O)N(CCc1ccc(C(F)(F)F)cc1)c1ccc(OC)c(OC)c1)c1ccccc1 (stereo not drawn) [Example 19, N-(3,4-Dimethoxy-phenyl)-2-phenyl-N′-propyl-N-[2-(4-trifluoromethyl-phenyl)-ethyl]-malonamide] | –
13 | 0.0468 µM | 0.292 µM | COc1ccc(N(CCc2ccc(C(F)(F)F)cc2)C(=O)C(C(=O)NCC2CC2)c2ccccc2)cc1OC (stereo not drawn) [Example 20, N-Cyclopropylmethyl-N′-(3,4-dimethoxy-phenyl)-2-phenyl-N′-[2-(4-trifluoromethyl-phenyl)-ethyl]-malonamide] | –
14 | 0.0278 µM | 0.173 µM | COc1ccc(N(CCc2ccc(C(F)(F)F)cc2)C(=O)C(C(=O)NCC(F)F)c2ccccc2)cc1OC (stereo not drawn) [Example 21, N-(2,2-Difluoro-ethyl)-N′-(3,4-diemthoxy-phenyl)-2-phenyl-N′-[2-(4-trifluoromethyl-phenyl)-ethyl]-malonamide] | –
15 | 0.0838 µM | 0.439 µM | COc1ccc(N(CCc2ccc(C(F)(F)F)cc2)C(=O)C(C(=O)Nc2cccnc2)c2ccccc2)cc1OC (stereo not drawn) [Example 22, N-(3,4-Dimethoxy-phenyl)-2-phenyl-N′-pyridin-3-yl-N-[2-(4-trifluoromethyl-phenyl)-ethyl]-malonamide] | –
16 | 0.023 µM | 0.238 µM | COc1ccc(N(CCc2ccc(C(F)(F)F)cc2)C(=O)C(C(=O)NC2CCOCC2)c2ccccc2)cc1OC (stereo not drawn) [Example 23, N-(3,4-Dimethoxy-phenyl)-2-phenyl-N′-(tetrahydro-pyran-4-yl)-N-[2-(4-trifluoromethyl-phenyl)-ethyl]-malonamide] | –
17 | 0.245 µM | 0.245 µM | COc1ccc(N(CCc2ccc(C(F)(F)F)cc2)C(=O)C(C(=O)NCc2cccnc2)c2ccccc2)cc1OC (stereo not drawn) [Example 24, N-(3,4-Dimethoxy-phenyl)-2-phenyl-N′-pyridin-3-ylmethyl-N-[2-(4-trifluoromethyl-phenyl)-ethyl]-malonamide] | –
18 | 0.055 µM | 0.295 µM | COc1cc(N(CCc2ccc(C(F)(F)F)cc2)C(=O)C(C(=O)N(C)C)c2ccccc2)ccc1Cl (stereo not drawn) [Example 56, N-(4-Chloro-3-methoxy-phenyl)-N′,N′-dimethyl-2-phenyl-N-[2-(4-trifluoromethyl-phenyl)-ethyl]-malonamide] | –
19 | 0.0572 µM | 0.723 µM | COc1ccc(N(CCc2ccc(C(F)(F)F)cc2)C(=O)C(C(=O)N(C)C)c2ccccc2)cc1Cl (stereo not drawn) [Example 58, N-(3-Chloro-4-methoxy-phenyl)-N′,N′-dimethyl-2-phenyl-N-[2-(4-trifluoromethyl-phenyl)-ethyl]-malonamide] | –
